How the values were obtained:
Cathepsin G = target: T1, Cathepsin G (Homo sapiens, UniProt P08311); assay: biochemical; type: tissue-based, Neutrophil; settings: neutrophil;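 further: inhibition of Cathepsin G enzyme activity, tested on an AMC-conjugated peptide substrate; in other assays of this panel Not Active means under 50% inhibition at 10 µM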
T1 sequence (P08311 whole entry): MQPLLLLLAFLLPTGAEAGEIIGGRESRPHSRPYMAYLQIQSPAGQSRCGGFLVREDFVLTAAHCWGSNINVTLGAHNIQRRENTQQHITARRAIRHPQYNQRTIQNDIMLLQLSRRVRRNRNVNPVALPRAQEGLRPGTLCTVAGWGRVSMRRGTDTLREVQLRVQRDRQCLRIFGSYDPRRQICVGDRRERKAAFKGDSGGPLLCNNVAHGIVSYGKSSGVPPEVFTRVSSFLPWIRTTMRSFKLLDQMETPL

Caspase-1 = target: T2, Caspase-1 (Homo sapiens, UniProt P29466); design: species or system Escherichia coli;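 further: Caspase-1 enzyme inhibition assay with a peptide substrate; in other assays of this panel Not Active means under 50% inhibition at 10 µM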
T2 sequence (P29466 whole entry): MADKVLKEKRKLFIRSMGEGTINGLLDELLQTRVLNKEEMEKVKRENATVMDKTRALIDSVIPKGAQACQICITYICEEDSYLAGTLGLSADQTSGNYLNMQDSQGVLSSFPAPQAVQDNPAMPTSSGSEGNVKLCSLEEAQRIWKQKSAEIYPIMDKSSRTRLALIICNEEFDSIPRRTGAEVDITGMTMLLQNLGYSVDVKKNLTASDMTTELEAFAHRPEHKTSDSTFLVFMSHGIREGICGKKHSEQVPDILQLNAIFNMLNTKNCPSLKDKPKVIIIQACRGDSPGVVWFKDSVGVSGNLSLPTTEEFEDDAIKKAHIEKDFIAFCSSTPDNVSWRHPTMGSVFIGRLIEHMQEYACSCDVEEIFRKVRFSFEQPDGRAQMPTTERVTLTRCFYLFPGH

[1] = target: Vascular endothelial growth factor receptor 1 (Homo sapiens, UniProt P17948); type: cell-based; settings: huvec; further: in other assays of this panel Not Active means under 50% inhibition at 10 µM
[2] = target: T3, Alpha-1A adrenergic receptor (Rattus norvegicus, UniProt P43140); assay: DRUGMATRIX: Alpha-1A adrenergic receptor radioligand binding (ligand: prazosin); type: cell membranes, Wistar, Submaxillary gland, Membrane; settings: Not Active = under 50% inhibition at 10 µM
T3 sequence (P43140 whole entry): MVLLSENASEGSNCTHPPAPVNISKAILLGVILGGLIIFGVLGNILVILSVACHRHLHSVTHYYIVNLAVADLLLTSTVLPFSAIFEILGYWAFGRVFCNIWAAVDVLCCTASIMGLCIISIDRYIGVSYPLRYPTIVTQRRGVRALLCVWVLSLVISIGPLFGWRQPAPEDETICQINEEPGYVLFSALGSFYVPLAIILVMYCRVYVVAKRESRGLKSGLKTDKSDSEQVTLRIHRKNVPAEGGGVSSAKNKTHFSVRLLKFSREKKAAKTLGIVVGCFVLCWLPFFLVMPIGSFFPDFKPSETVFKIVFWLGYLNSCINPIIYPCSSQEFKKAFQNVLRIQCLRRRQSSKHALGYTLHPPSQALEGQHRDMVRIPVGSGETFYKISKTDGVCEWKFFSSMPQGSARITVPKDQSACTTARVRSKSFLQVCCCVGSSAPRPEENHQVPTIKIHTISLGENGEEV

[3] = target: T4, Muscarinic acetylcholine receptor M2 (Homo sapiens, UniProt P08172); type: cell membranes, CHO-K1, Membrane; settings: cho-k1; further: in other assays of this panel Not Active means under 50% inhibition at 10 µM
T4 sequence (P08172 whole entry): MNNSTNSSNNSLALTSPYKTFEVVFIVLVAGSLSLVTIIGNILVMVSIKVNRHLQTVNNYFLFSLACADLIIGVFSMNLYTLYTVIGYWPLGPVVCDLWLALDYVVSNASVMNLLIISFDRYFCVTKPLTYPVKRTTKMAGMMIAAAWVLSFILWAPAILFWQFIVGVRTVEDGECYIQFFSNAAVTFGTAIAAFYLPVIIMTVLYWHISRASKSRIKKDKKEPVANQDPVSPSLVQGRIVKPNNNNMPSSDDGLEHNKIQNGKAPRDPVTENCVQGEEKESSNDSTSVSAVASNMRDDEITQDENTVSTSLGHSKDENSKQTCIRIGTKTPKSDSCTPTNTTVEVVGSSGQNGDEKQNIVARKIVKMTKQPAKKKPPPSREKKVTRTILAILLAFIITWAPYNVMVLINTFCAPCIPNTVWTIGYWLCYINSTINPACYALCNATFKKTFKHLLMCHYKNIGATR

Neutrophil elastase = target: T5, Neutrophil elastase (Homo sapiens, UniProt P08246); type: tissue-based
T5 sequence (P08246 whole entry): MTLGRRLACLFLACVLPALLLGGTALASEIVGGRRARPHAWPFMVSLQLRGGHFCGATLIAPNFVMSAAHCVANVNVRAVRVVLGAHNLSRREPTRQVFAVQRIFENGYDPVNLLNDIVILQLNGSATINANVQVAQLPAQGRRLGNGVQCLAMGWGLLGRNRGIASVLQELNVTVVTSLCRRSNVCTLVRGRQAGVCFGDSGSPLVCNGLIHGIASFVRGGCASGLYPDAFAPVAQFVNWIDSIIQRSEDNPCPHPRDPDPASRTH

Carbonic anhydrase 2 = Carbonic anhydrase 2 (Homo sapiens, UniProt P00918); assay: DRUGMATRIX: Carbonic Anhydrase II enzyme inhibition (substrate: 4-Nitrophenyl acetate (4-NPA)); type: tissue-based, Erythrocyte; settings: erythrocyte; Not Active = under 50% inhibition at 10 µM

Measured: IC50

Chain of Vascular endothelial growth factor receptor 1 (P17948 whole entry): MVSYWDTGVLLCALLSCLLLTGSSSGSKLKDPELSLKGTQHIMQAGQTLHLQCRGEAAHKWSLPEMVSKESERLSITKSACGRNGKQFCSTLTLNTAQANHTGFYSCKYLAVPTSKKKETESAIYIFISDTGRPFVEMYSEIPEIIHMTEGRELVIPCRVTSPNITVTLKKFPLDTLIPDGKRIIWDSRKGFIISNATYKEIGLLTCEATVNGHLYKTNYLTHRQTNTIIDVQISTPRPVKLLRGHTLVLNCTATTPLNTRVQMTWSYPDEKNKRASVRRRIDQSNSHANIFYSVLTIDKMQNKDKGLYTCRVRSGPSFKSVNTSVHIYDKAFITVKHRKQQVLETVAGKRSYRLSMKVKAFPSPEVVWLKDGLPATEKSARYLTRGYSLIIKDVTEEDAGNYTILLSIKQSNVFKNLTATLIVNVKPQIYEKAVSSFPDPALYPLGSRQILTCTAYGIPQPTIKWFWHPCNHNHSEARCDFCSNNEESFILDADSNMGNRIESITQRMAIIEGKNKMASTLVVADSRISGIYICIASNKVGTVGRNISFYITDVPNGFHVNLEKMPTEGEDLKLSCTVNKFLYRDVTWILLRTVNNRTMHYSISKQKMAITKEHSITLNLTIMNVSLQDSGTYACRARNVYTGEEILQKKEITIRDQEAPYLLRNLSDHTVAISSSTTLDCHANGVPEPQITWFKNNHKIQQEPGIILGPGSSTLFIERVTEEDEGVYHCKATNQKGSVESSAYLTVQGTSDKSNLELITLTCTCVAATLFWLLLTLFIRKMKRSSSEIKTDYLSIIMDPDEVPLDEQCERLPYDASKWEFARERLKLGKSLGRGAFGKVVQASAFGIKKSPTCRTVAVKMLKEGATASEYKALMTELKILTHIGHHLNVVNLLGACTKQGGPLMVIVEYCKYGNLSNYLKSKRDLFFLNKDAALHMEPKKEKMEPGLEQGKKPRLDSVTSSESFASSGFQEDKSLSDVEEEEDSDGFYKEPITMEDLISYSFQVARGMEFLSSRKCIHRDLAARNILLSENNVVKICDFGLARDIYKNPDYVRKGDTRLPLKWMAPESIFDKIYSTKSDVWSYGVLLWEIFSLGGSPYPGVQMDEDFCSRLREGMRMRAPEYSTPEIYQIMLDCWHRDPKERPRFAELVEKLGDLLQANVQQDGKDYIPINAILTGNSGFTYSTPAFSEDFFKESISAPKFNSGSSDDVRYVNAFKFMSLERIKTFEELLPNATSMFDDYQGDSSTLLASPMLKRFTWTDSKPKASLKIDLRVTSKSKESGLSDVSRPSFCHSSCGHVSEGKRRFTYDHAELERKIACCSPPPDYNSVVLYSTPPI

C1CCN2C[C@@H]3C[C@@H](CN4CCCC[C@@H]34)[C@H]2C1 [SPARTEINE]
Not Active: Cathepsin G | Caspase-1 | [1] | [2] | [3] | Neutrophil elastase | Carbonic anhydrase 2

CC(N)C12CC3CC(CC(C3)C1)C2 (centres undefined) [RIMANTADINE]
Not Active: Cathepsin G | Caspase-1 | [1] | [2] | [3] | Neutrophil elastase | Carbonic anhydrase 2
